Experimental findings from patent US7868023B2, “Thiophene sulfoximines, compositions thereof, and methods of treating complement-mediated diseases and conditions” (Janssen Pharmaceutica NV, priority 2005, dated 2011) are described below.

Each structure is given as a SMILES string.

For test [1], the target named is T1, human MASP-2 (Homo sapiens, UniProt O00187).
T1 construct: His-tag; made in house; host or cells: Baculovirus expression system in insect cells
Briefly: In vitro inhibition of MASP-2 (Ki determination, Z-Gly-Arg-S-Bzl hydrolysis, DTNB readout). The class given is biochemical. The note with it: substrate Z-Gly-Arg-S-Bzl 45 μM, 37° C., pH 7.5; Ki app corrected for true Ki. The text has this:
Reagents: All buffer salts were obtained from Sigma Chemical Company (St. Louis, Mo.), and were of the highest purity available. DTNB was purchased from Pierce (Rockford, Ill.). Z-Gly-Arg-S-Bzl was purchased from Enzyme Systems Products (Livermore, Calif.). Autoactivated 2-chain human MASP-2 (His-tag, Cys300-Phe686) was produced in-house from a Baculovirus expression system in insect cells.
Ki Determinations All assays were based on the ability of the test compound to inhibit the MASP-2-catalyzed hydrolysis of the substrate Z-Gly-Arg-S-Bzl, which was observed via a secondary reaction with 5,5′-dithio-bis(2-nitrobenzoic acid) (DTNB). […]
In a typical Ki determination, into each well of a 96-well plate was pipetted 280 μL of substrate solution followed by 10 μL of test compound solution, and the plate was allowed to thermally equilibrate at 37° C. for 10 minutes. Reactions were initiated by the addition of a 10 μL aliquot of the enzyme, and the absorbance increase at 405 nm was continuously recorded for 15 minutes in a Molecular Devices plate reader. […] The ratio of the velocity (rate of change in absorbance as a function of time) for a sample containing no test compound was divided by the velocity of a sample containing test compound, and was plotted as a function of test compound concentration. The data were fit to a linear regression, and the value of the slope of the line calculated. […]

Test [2] concerns the target T2, activated human C1s (Homo sapiens, UniProt P09871).
T2 construct: purchased Calbiochem (La Jolla, Calif.)
T2 sequence (P09871 438-688 limits assumed): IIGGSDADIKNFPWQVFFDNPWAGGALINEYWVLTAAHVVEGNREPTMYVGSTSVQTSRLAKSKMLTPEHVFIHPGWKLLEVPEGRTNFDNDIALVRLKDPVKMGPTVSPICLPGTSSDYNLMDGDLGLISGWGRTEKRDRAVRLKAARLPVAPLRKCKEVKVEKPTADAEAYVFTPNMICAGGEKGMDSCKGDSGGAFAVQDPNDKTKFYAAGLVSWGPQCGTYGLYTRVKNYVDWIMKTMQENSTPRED
T2 sequence (P09871 16-437 limits assumed): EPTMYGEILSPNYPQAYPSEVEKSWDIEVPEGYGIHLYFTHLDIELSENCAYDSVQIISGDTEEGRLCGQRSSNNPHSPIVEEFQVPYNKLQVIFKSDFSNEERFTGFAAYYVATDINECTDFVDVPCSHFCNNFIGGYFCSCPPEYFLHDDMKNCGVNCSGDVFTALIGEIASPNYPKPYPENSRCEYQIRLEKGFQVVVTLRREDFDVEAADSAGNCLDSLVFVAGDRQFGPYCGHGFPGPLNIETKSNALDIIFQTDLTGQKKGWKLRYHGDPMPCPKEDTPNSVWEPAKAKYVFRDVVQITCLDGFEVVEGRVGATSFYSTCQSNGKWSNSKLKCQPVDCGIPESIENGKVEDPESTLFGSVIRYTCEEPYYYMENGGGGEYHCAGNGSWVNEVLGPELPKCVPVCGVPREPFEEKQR
The test is described as follows: In vitro inhibition of C1s (Ki determination, Z-Gly-Arg-S-Bzl hydrolysis, DTNB readout). The class given is biochemical. The conditions noted are these: substrate Z-Gly-Arg-S-Bzl 45 μM, 37° C., pH 7.5. An excerpt: Reagents: All buffer salts were obtained from Sigma Chemical Company (St. Louis, Mo.), and were of the highest purity available. DTNB was purchased from Pierce (Rockford, Ill.). Z-Gly-Arg-S-Bzl was purchased from Enzyme Systems Products (Livermore, Calif.). Activated human C1s was purchased from Calbiochem (La Jolla, Calif.).
Ki Determinations All assays were based on the ability of the test compound to inhibit the C1s-catalyzed hydrolysis of the substrate Z-Gly-Arg-S-Bzl, which was observed via a secondary reaction with 5,5′-dithio-bis(2-nitrobenzoic acid) (DTNB). […]
In a typical Ki determination, into each well of a 96-well plate was pipetted 280 μL of substrate solution, 10 μL of test compound solution, and the plate allowed to thermally equilibrate at 37° C. for 15 minutes. Reactions were initiated by the addition of a 10 μL aliquot of the enzyme, and the absorbance increase at 405 nm was continuously recorded for 15 minutes in a Molecular Devices plate reader. […] The ratio of the velocity (rate of change in absorbance as a function of time) for a sample containing no test compound was divided by the velocity of a sample containing test compound, and was plotted as a function of test compound concentration. The data were fit to a linear regression, and the value of the slope of the line calculated. The inverse of the slope was the experimentally determined Ki value.

T1 sequence (O00187 300-686): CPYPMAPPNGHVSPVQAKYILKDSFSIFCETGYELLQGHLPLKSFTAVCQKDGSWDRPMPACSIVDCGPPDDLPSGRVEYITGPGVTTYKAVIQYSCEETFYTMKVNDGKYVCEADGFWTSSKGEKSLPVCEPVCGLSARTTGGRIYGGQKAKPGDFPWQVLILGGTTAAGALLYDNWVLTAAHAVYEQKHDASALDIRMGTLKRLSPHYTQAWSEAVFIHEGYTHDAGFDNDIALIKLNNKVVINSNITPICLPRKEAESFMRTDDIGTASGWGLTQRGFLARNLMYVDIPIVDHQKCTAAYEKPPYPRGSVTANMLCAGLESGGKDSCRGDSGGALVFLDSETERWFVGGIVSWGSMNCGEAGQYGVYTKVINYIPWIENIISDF
T1 sequence (O00187 300-444): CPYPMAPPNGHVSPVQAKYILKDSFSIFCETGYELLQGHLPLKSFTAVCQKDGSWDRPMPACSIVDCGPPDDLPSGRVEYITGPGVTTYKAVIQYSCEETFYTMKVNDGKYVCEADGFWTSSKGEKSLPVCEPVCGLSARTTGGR

For `CSc1sc(C(=N)N)cc1S(=O)(=NS(=O)(=O)c1cccc(NC(N)=O)c1)c1cccc(-c2c(C)cc(NC(=N)N)cc2N)c1` (stereo not drawn) [Example 18, 4-[S-[3-(2-Amino-4-guanidino-6-methyl-phenyl)phenyl]-N-(3-ureidobenzene-sulfonyl)sulfoxamino]-5-methylsulfanyl-thiophene-2-carboxamidine bistrifluoroacetate], the Ki in test [1] was determined as 0.44 µM; in test [2], 0.011 µM.

`CSc1sc(C(=N)N)cc1S(=O)(=NS(=O)(=O)c1cccc([N+](=O)[O-])c1)c1cccc(-c2ccc(NC(=N)N)cc2C)c1` (stereo not drawn) [Example 46, 4-[S-[3-(4-guanidino-6-methyl-phenyl)phenyl]-N-(3-nitrobenzene-sulfonyl)sulfoximino]-5-methylsulfanyl-thiophene-2-carboxamidine bistrifluoroacetate]: the Ki in test [2] turned out to be 0.01 µM.
